Experimental data taken from BigSolDB 2.1.

O=C(Nc1ccc(F)cc1F)c1cccnc1Oc1cccc(C(F)(F)F)c1
solubility (mole fraction)
Details	278.15 K	283.15 K	288.15 K	293.15 K	298.15 K	303.15 K	308.15 K	313.15 K	318.15 K	323.15 K
in acetone	0.00903	0.0107	0.0127	0.0152	0.018	0.021	0.0247	0.029	0.0339	0.0408
in cyclohexane	–	0.000103	0.000162	0.000229	0.000334	0.000458	0.000613	0.000806	0.00112	0.00147
in ethanol	0.000251	0.000332	0.00043	0.000545	0.000681	0.000857	0.00107	0.00139	0.00173	0.00214
in isopropanol	4.65e-05	7.36e-05	0.000116	0.000183	0.000282	0.000431	0.000665	0.001	0.00152	0.0022
in methanol	0.000235	0.000293	0.000377	0.000474	0.0006	0.00075	0.000938	0.00117	0.00147	0.00187
in toluene	0.00513	0.00638	0.00779	0.00954	0.0116	0.0142	0.0177	0.0215	0.0252	0.0303
